Results: patent US8546377B2 (AbbVie Inc., priority 2009, dated 2013)
Read-outs that look alike come from different tables or passages of the source.

Experiments:
[1] = target: T1, 5HT2C receptors (Homo sapiens, UniProt P28335); assay: Human 5-HT2C functional assay in CHO-K1 cells (calcium flux, FLIPR); assay type: cell-based; set-up: expressed in transfected cells; host or cells: CHO-K1 cells; settings: for Emax: percentage relative to the effect of serotonin
T1 sequence (P28335 33-458): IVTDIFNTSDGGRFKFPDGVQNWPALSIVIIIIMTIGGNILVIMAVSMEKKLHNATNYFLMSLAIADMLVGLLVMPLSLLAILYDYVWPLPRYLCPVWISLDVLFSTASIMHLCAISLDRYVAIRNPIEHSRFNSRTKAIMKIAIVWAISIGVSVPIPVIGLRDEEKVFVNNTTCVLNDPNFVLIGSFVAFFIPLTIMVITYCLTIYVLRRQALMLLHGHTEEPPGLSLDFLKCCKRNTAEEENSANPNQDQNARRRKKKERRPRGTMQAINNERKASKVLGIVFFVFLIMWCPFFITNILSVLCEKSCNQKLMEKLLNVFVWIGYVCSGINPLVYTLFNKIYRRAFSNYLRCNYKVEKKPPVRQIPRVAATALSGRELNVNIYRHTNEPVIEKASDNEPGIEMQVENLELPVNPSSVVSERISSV
Procedure, shortened: (§1)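 Frozen CHO-K1 cells over-expressing receptor, serum-starved overnight, loaded with Ca4 dye plus 2.5 mM probenecid for 60 min at room temperature. FLIPR fluorescence (ex 480/em 530 nm, 25° C) recorded 3 min after compound addition; 6-point 1:10 series from 10 μM, 0.2% DMSO. Response normalized to serotonin, 4-parameter fit gives EC50; Emax as % of serotonin.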

[2] = target: T2, 5HT2B receptors (Homo sapiens, UniProt P41595); assay: Human 5-HT2B functional assay in CHO-K1 cells (calcium flux, FLIPR); assay type: cell-based
T2 construct: expressed in transfected cells; host or cells: CHO-K1 cells
Procedure, shortened: as §1

[3] = CHO-K1 cells over-expressing 5HT2C, calcium flux, read-out: EC50 (μM), 5-HT2c Agonist Activity
[4] = CHO-K1 cells, read-out: Emax (%), 5-HT2c Agonist Activity
[5] = CHO-K1 cells over-expressing 5HT2B, calcium flux, read-out: EC50 (μM), 5-HT2B Agonist Activity
[6] = CHO-K1 cells, percentage relative to the effect of serotonin, read-out: Emax (%), 5-HT2B Agonist Activity
[7] = CHO-K1, read-out: Emax (%), 5-HT2c Agonist Activity, CHO-K1 cells

T2 sequence (P41595 whole entry): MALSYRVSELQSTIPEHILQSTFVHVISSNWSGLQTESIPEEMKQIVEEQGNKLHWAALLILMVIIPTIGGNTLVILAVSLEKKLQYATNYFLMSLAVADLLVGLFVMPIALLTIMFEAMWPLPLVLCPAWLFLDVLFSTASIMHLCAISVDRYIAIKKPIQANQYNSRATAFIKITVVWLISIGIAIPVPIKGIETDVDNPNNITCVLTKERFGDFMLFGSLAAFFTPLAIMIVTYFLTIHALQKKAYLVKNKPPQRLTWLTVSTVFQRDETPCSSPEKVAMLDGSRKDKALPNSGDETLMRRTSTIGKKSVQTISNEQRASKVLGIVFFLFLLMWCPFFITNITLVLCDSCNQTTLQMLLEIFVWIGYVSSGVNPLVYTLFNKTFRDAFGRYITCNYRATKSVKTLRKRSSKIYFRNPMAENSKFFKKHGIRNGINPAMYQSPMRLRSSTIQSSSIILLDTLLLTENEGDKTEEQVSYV

In the case of `C[C@@H](Oc1ccc2c(c1)N1CCNC[C@@H]1CC(=O)N2)c1cc(F)ccc1F` [Example 178, (4aS)-10-[(1R)-1-(2,5-difluorophenyl)ethoxy]-1,2,3,4,4a,5-hexahydropyrazino[1,2-a][1,5]benzodiazepin-6(7H)-one], the EC50 [1, 3] is reported as 0.001 µM, the Emax [1, 4] is reported as 100% and the EC50 [2, 5] is reported as 0.04 µM. For the same compound, the Emax [2, 6] was 45%.

With `Clc1ccc2c(c1)OCC[C@H]1CNCCN21` [Example 179, (4aS)-9-chloro-2,3,4,4a,5,6-hexahydro-1H-pyrazino[2,1-d][1,5]benzoxazepine] the EC50 [1] was 0.008 µM, the Emax [1, 7] was > 120% and the EC50 [2] was > 10 µM.

With `c1ccc2c(c1)CCCC1CNCCN21` (centres unmarked) [Example 182, 1,2,3,4,4a,5,6,7-octahydropyrazino[1,2-a][1]benzazepine] the EC50 [1] was 0.007 µM, the Emax [1, 7] was > 120% and the EC50 [2] was 0.1 µM. It also gave an Emax ([2]; CHO-K1, read-out: Emax (%), 5-HT2B Agonist Activity) of 40%.

For `CN1CCN2c3ccccc3CCCC2C1` (centres unmarked) [Example 183, 3-methyl-1,2,3,4,4a,5,6,7-octahydropyrazino[1,2-a][1]benzazepine], the EC50 [1] was 0.003 µM, the Emax [1, 7] was > 120% and the EC50 [2] was > 10 µM.

For `O=C1CC2CNCCN2c2cc(Cc3ccccc3)ccc2N1` (centres unmarked) [Example 185, 10-benzyl-1,2,3,4,4a,5-hexahydropyrazino[1,2-a][1,5]benzodiazepin-6(7H)-one], the EC50 [1, 3] was 0.03 µM, the Emax [1, 4] was > 120% and the EC50 [2, 5] was > 10 µM.

In the case of `Clc1ccc2c(c1)N1CCN(Cc3ccccc3)C[C@@H]1CCO2` [Example 186, (4aS)-3-benzyl-10-chloro-2,3,4,4a,5,6-hexahydro-1H-pyrazino[2,1-d][1,5]-benzoxazepine], the EC50 [1, 3] is reported as 0.8 µM, the Emax [1, 4] is reported as > 120% and the EC50 [2, 5] is reported as > 10 µM.

For `c1ccc(-c2ccc3c(c2)N2CCNC[C@@H]2CCO3)cc1` [Example 187, (4aS)-10-phenyl-2,3,4,4a,5,6-hexahydro-1H-pyrazino[2,1-d][1,5]benzoxazepine], the EC50 [1, 3] was 0.03 µM, the Emax [1, 4] was > 120% and the EC50 [2, 5] was 6 µM. For the same compound, the Emax [2, 6] was 10%.

`CN1CCN2c3cc(Cl)ccc3OCC[C@H]2C1` [Example 188, (4aS)-10-chloro-3-methyl-2,3,4,4a,5,6-hexahydro-1H-pyrazino[2,1-d][1,5]benzoxazepine] was tested, and the EC50 [1] was 0.01 µM, the Emax [1, 7] was 70% and the EC50 [2] was > 10 µM.

In the case of `Cc1ccccc1-c1ccc2c(c1)N1CCNC[C@@H]1CCO2` [Example 189, (4aS)-10-(2-methylphenyl)-2,3,4,4a,5,6-hexahydro-1H-pyrazino[2,1-d][1,5]benzoxazepine], the EC50 [1, 3] is reported as 0.03 µM, the Emax [1, 4] is reported as > 120% and the EC50 [2, 5] is reported as 1 µM. It also gave an Emax [2, 6] of 20%.

For `Cc1cccc(-c2ccc3c(c2)N2CCNC[C@@H]2CCO3)c1` [Example 190, (4aS)-10-(3-methylphenyl)-2,3,4,4a,5,6-hexahydro-1H-pyrazino[2,1-d][1,5]benzoxazepine], the EC50 [1, 3] was 0.02 µM, the Emax [1, 4] was > 120% and the EC50 [2, 5] was > 10 µM.

`Cc1ccc(-c2ccc3c(c2)N2CCNC[C@@H]2CCO3)cc1` [Example 191, (4aS)-10-(4-methylphenyl)-2,3,4,4a,5,6-hexahydro-1H-pyrazino[2,1-d][1,5]benzoxazepine] was tested, and the EC50 [1, 3] was 0.4 µM, the Emax [1, 4] was > 120% and the EC50 [2, 5] was > 10 µM.

In the case of `COc1ccccc1-c1ccc2c(c1)N1CCNC[C@@H]1CCO2` [Example 192, (4aS)-10-(2-methoxyphenyl)-2,3,4,4a,5,6-hexahydro-1H-pyrazino[2,1-d][1,5]benzoxazepine], the EC50 [1, 3] is reported as 0.03 µM, the Emax [1, 4] is reported as > 120% and the EC50 [2, 5] is reported as 1 µM. For the same compound, the Emax [2, 6] was 10%.

In the case of `COc1cccc(-c2ccc3c(c2)N2CCNC[C@@H]2CCO3)c1` [Example 193, (4aS)-10-(3-methoxyphenyl)-2,3,4,4a,5,6-hexahydro-1H-pyrazino[2,1-d][1,5]benzoxazepine], the EC50 [1, 3] is reported as 0.008 µM, the Emax [1, 4] is reported as > 120% and the EC50 [2, 5] is reported as 1 µM. For the same compound, the Emax [2, 6] was 25%.

In the case of `COc1ccc(-c2ccc3c(c2)N2CCNC[C@@H]2CCO3)cc1` [Example 194, (4aS)-10-(4-methoxyphenyl)-2,3,4,4a,5,6-hexahydro-1H-pyrazino[2,1-d][1,5]benzoxazepine], the EC50 [1, 3] is reported as 0.4 µM, the Emax [1, 4] is reported as > 120% and the EC50 [2, 5] is reported as > 10 µM.

For `CS(=O)(=O)c1ccccc1-c1ccc2c(c1)N1CCNC[C@@H]1CCO2` [Example 195, (4aS)-10-[2-(methylsulfonyl)phenyl]-2,3,4,4a,5,6-hexahydro-1H-pyrazino[2,1-d][1,5]benzoxazepine], the EC50 [1, 3] was 0.007 µM, the Emax [1, 4] was > 120% and the EC50 [2, 5] was 0.3 µM. It also gave an Emax [2, 6] of 55%.

For `CS(=O)(=O)c1cccc(-c2ccc3c(c2)N2CCNC[C@@H]2CCO3)c1` [Example 196, (4aS)-10-[3-(methylsulfonyl)phenyl]-2,3,4,4a,5,6-hexahydro-1H-pyrazino[2,1-d][1,5]benzoxazepine], the EC50 [1, 3] was 0.009 µM, the Emax [1, 4] was > 120% and the EC50 [2, 5] was > 10 µM.

With `CC(=O)c1ccccc1-c1ccc2c(c1)N1CCNC[C@@H]1CCO2` [Example 197, 1-{2-[(4aS)-2,3,4,4a,5,6-hexahydro-1H-pyrazino[2,1-d][1,5]benzoxazepin-10-yl]phenyl}ethanone] the EC50 [1, 3] was 0.07 µM, the Emax [1, 4] was > 120% and the EC50 [2, 5] was 1 µM. The Emax [2, 6] was 15%.

In the case of `CC(=O)c1cccc(-c2ccc3c(c2)N2CCNC[C@@H]2CCO3)c1` [Example 198, 1-{3-[(4aS)-2,3,4,4a,5,6-hexahydro-1H-pyrazino[2,1-d][1,5]benzoxazepin-10-yl]phenyl}ethanone], the EC50 [1, 3] is reported as 0.01 µM, the Emax [1, 4] is reported as > 120% and the EC50 [2, 5] is reported as 1 µM. For the same compound, the Emax [2, 6] was 25%.

In the case of `CC(=O)c1ccc(-c2ccc3c(c2)N2CCNC[C@@H]2CCO3)cc1` [Example 199, 1-{4-[(4aS)-2,3,4,4a,5,6-hexahydro-1H-pyrazino[2,1-d][1,5]benzoxazepin-10-yl]phenyl}ethanone], the EC50 [1, 3] is reported as 0.9 µM, the Emax [1, 4] is reported as > 120% and the EC50 [2, 5] is reported as 8 µM. The Emax [2, 6] was 10%.

`Oc1ccccc1-c1ccc2c(c1)N1CCNC[C@@H]1CCO2` [Example 200, 2-[(4aS)-2,3,4,4a,5,6-hexahydro-1H-pyrazino[2,1-d][1,5]benzoxazepin-10-yl]phenol] was tested, and the EC50 [1, 3] was 0.01 µM, the Emax [1, 4] was > 120% and the EC50 [2, 5] was > 10 µM.

For `Oc1cccc(-c2ccc3c(c2)N2CCNC[C@@H]2CCO3)c1` [Example 201, 3-[(4aS)-2,3,4,4a,5,6-hexahydro-1H-pyrazino[2,1-d][1,5]benzoxazepin-10-yl]phenol], the EC50 [1, 3] was 0.2 µM, the Emax [1, 4] was > 120% and the EC50 [2, 5] was > 10 µM.

For `Oc1ccc(-c2ccc3c(c2)N2CCNC[C@@H]2CCO3)cc1` [Example 202, 4-[(4aS)-2,3,4,4a,5,6-hexahydro-1H-pyrazino[2,1-d][1,5]benzoxazepin-10-yl]phenol], the EC50 [1, 3] was 0.005 µM, the Emax [1, 4] was > 120% and the EC50 [2, 5] was 1 µM. The Emax [2, 6] was 15%.

For `Fc1ccccc1-c1ccc2c(c1)N1CCNC[C@@H]1CCO2` [Example 203, (4aS)-10-(2-fluorophenyl)-2,3,4,4a,5,6-hexahydro-1H-pyrazino[2,1-d][1,5]-benzoxazepine], the EC50 [1, 3] was 0.02 µM, the Emax [1, 4] was > 120% and the EC50 [2, 5] was 2 µM. For the same compound, the Emax [2, 6] was 15%.

For `Fc1cccc(-c2ccc3c(c2)N2CCNC[C@@H]2CCO3)c1` [Example 204, (4aS)-10-(3-fluorophenyl)-2,3,4,4a,5,6-hexahydro-1H-pyrazino[2,1-d][1,5]benzoxazepine], the EC50 [1, 3] was 0.05 µM, the Emax [1, 4] was > 120% and the EC50 [2, 5] was > 10 µM.

In the case of `Fc1ccc(-c2ccc3c(c2)N2CCNC[C@@H]2CCO3)cc1` [Example 205, (4aS)-10-(4-fluorophenyl)-2,3,4,4a,5,6-hexahydro-1H-pyrazino[2,1-d][1,5]benzoxazepine], the EC50 [1, 3] is reported as 0.05 µM, the Emax [1, 4] is reported as > 120% and the EC50 [2, 5] is reported as 5 µM. For the same compound, the Emax [2, 6] was 10%.

For `c1cncc(-c2ccc3c(c2)N2CCNC[C@@H]2CCO3)c1` [Example 206, (4aS)-10-(pyridin-3-yl)-2,3,4,4a,5,6-hexahydro-1H-pyrazino[2,1-d][1,5]benzoxazepine], the EC50 [1] was 0.07 µM, the Emax [1, 7] was > 120% and the EC50 [2] was > 10 µM.

In the case of `c1cc(-c2ccc3c(c2)N2CCNC[C@@H]2CCO3)ccn1` [Example 207, (4aS)-10-(pyridin-4-yl)-2,3,4,4a,5,6-hexahydro-1H-pyrazino[2,1-d][1,5]benzoxazepine], the Emax [1, 7] is reported as > 120%, the EC50 [1, 3] is reported as 0.8 µM and the EC50 [2, 5] is reported as > 10 µM.

For `CC(C)=Cc1ccc2c(c1)N1CCNC[C@@H]1CCO2` [Example 208, (4aS)-10-(2-methylprop-1-en-1-yl)-2,3,4,4a,5,6-hexahydro-1H-pyrazino[2,1-d][1,5]benzoxazepine], the EC50 [1, 3] was 0.001 µM, the Emax [1, 4] was > 120% and the EC50 [2, 5] was 0.1 µM. It also gave an Emax [2, 6] of 50%.

In the case of `C1=C(c2ccc3c(c2)N2CCNC[C@@H]2CCO3)CCCC1` [Example 209, (4aS)-10-(cyclohex-1-en-1-yl)-2,3,4,4a,5,6-hexahydro-1H-pyrazino[2,1-d][1,5]benzoxazepine], the EC50 [1, 3] is reported as 0.01 µM, the Emax [1, 4] is reported as > 120% and the EC50 [2, 5] is reported as > 10 µM.
